Data as given in patent US5215738A, “Benzamide and nicotinamide radiosensitizers” (SRI International, priority 1990, dated 1993).
Structures can show the parent of a compound that is named as a salt. Blank lines part the entries; values can stand above or below the compound they belong to.

What was measured:
EMT6 tumors = test: In vivo assay for radiosensitization activity (EMT6 tumors in BALB/c mice); parameters: species or system female BALB/c mice; key: 0: No radiosensitization; 1: Minimal radiosensitization (some radiosensitization relative to controls but lowest survival>3×lowest survival with MIS); 2: Moderate radiosensitization (not good as MIS, but lowest surviving fraction<3×lowest surviving fraction with MIS); 3: Good radiosensitization (equal to MIS); 4: Excellent radiosensitization (superior to MIS); settings: score 0 to 4 compared with MIS, 5 mmol/kg or 2/3 of the LD50, 2,000 rad
Protocol: In Vivo Assay for Radiosensitization Activity
The compounds of the invention are tested in vivo for radiosensitization activity by the assay of Brown, J. M. Radiation Res (1975) 64:633-47, incorporated herein by reference. For this assay EMT6 tumors in female BALB/c mice weighing 20-25 g are used. These mice are bred under specific pathogen-free conditions and are 3-4 months old at the beginning of each experiment. The EMT6 tumor is grown intradermally in the flank from an inoculation of 2×10^5 tumor cells taken from the 2nd-8th in vitro passage of the tumor cells since removal from the previous in vivo tumor. Two tumors per mouse are implanted, and are used as subject tumors when they reach a volume of approximately […]. At this point the tumors contain approximately 20% hypoxic cells.
Test compounds are compared against MIS in this assay. The test compound is tested at a fixed injected dose of either 5 mmol/kg or 2/3 of the LD50 (whichever is lower), MIS is injected into controls at the same dose. Additional suitable controls of test compound-injected but nonirradiated and saline-injected and irradiated mice are also included. A fixed radiation dose of 2,000 rad is applied at variable intervals of 5 min to 2 hr between injection and irradiation. Typically, irradiation is applied at 5, 10, 15, 20, 30, 45, 60, 90, and 120 min following intraperitoneal administration of both drugs. By using these intervals, the results give an indication of both the optimum time to irradiate and of how the test compound sensitizes in relationship to MIS.
Irradiation of the EMT6 tumors is done by irradiating nonanesthetized tumor-bearing mice in a Plexiglas box. Irradiation conditions are 250 kVp X-rays, 15 mA, FSC 33 cm, added filtration of 0.35 mm Cu, half value layer 1.3 mm Cu, and a dose rate of 317 rad/min.
Radiosensitization activity is judged by survival rate of dissected and cultured tumor cells as follows: The tumor-bearing mice are killed immediately after irradiation, and tumors dissected from the skin, cut into several pieces, and made into a fine brei by high-speed chopping with a razor blade attached to a jigsaw. The brei is added to 30 ml of Hank's buffered salt solution (HBSS) containing 0.02% DNase, 0.05% promase, and 0.02% collagenase. The suspension is stirred for 30 min at 37° C., filtered, and centrifuged at 1,600 rmp for 10 min at 4° C. The cell pellet is resuspended in complete Waymouth's medium plus 12-1/2% horse serum plus 2-12% fetal calf serum (FCS) and an aliquot mixed with trypan blue and counted with the use of a hemacytometer. […] After incubation for 13 days, the colonies are fixed and stained, and those containing 50 cells or more are counted. […]
The test compound is scored on the scale of 0 to 4 based on how it compares with MIS. […]

[1] = Cytotoxicity test (% cell survival, hypoxic cells); assay type: cell-based, Chinese hamster; settings: hamster, cho ha-1 cells, 10 mM, 22° C., hypoxia
Protocol: (§1) Cytotoxicity tests were also carried out on some of the compounds. The test procedure was as follows: Log-phase Chinese hamster ovary HA-1 cells were trypsinized (0.5% trypsin in Hank's buffered salt solution (HBSS)) and plated in 60 mm Permanox petri dishes in concentrations necessary to yield approximately 30 colonies after experimental treatment. The cells were allowed to attach overnight. Then the medium was removed from each dish and replaced with 2 ml of medium containing varying concentrations of the test compound. The petri dishes were then placed in nylon chamber fitted with gassing ports and, to achieve hypoxia, were gassed at room temperature with humidified N2 containing 5% CO2 ' for 1 hr at a rate of 1 l/min. The cells are then exposed to 10 mM of the test compound for 1 hr at 22° C. The % cell survival is read after such treatment.

[2] = test system: Chinese hamster ovary HA-1 cells; test: Cytotoxicity test (% cell survival, hypoxic cells); assay type: cell-based; settings: 10 mM, 1 hr, 22° C., hypoxia, CHO HA-1 cells; 60 min, 10000 µM
Protocol: as §1

[3] = test system: normal cells (tail growth) and tumor cells; settings: nicotinamide administered prior to irradiating; cited from earlier work
Chinese hamster cells = settings: added during or after irradiation; non-hypoxic cells; cited from earlier work
Water solubility = assay type: physicochemical

Structure (SMILES): NC(=O)c1cccc(O)c1 [3-hydroxybenzamide]
Radiosensitization (EMT6 tumors): 3
viability at 1 h, 10000 µM [1]: 90%
Cytotoxicity % Cell Survival [2]: 77%

Structure (SMILES): NC(=O)c1cccnc1 [nicotinamide]
Radiosensitization (EMT6 tumors): 3
enhancement ratio, normal vs tumor cells [3]: greater for normal cells in vivo than that exhibited for tumor cells

Structure (SMILES): COCCNc1cncc(C(N)=O)c1 [3-(2-methoxyethylamino)nicotinamide, 3-(2-methoxyethylamino) nicotinamide]
Radiosensitization (EMT6 tumors): 3

Structure (SMILES): NC(=O)c1cccc(N)c1 [m-aminobenzamide]
sensitization to lethal effects of radiation (Chinese hamster cells): found to sensitize these cells to the lethal effects of radiation

Structure (SMILES): NC(=O)c1cccc(OCCO)c1 [3-(2-hydroxyethoxy)benzamide]
Radiosensitization (EMT6 tumors): 3
viability at 1 h, 10000 µM [1]: 89%

water solubility (Water solubility): very water soluble
Structure (SMILES): NC(=O)c1cncc(O)c1 [5-hydroxynicotinamide sodium salt, 5-hydroxynicotinamide]
